Experimental data published in paper PMC4893628, “Chalcone-based Selective Inhibitors of a C4 Plant Key Enzyme as Novel Potential Herbicides” (Scientific Reports, 2016).
Like-named read-outs stand apart in the source and are kept apart here.

How the values were obtained:
[1] = test system: Corynebacterium glutamicum ATCC13032; assay: Bacterial growth in microscale cultivation, C. glutamicum; assay type: cell-based; conditions: relative to control; for activity at 0.1 µM / activity at 1 µM / activity at 10 µM / activity at 4 µM / activity at 40 µM / activity at 400 µM: Corynebacterium glutamicum
In short: (§1)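 In a BioLector microscale system shaken at 1200 rpm, growth was tracked by backscatter at 620 nm, and final signal, growth rate (h⁻¹) and lag-phase length were scored against DMSO-only controls. Starting OD600 was 0.5, or 0.25 for B. subtilis. Inhibitors came from DMSO stocks, with trans-chalcone capped at 400 μM and 2'-hydroxychalcone at 100 μM.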

Amaranthus retroflexus = assay: In planta growth experiment, A. retroflexus; assay type: in vivo; conditions: for Influence on plants: shoots sprayed, 3 mM
In short: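 Single top spray of 3 mM compound (2.4% DMSO, 0.1% Tween) onto two-leaf-stage plants in a climate chamber (22/20 °C, 16 h/8 h); controls got vehicle only.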

[2] = test system: Escherichia coli K-12 MG1655; assay: Bacterial growth in microscale cultivation, E. coli; assay type: cell-based; conditions: relative to control; for activity at 0.1 µM / activity at 1 µM / activity at 10 µM / activity at 4 µM / activity at 40 µM / activity at 400 µM: Escherichia coli
In short: as §1

[3] = ATCC13032, complex medium, 4 µM, read-out: Final Backscatter
[4] = ATCC13032, complex medium, 4 µM, read-out: Growth rate
[5] = ATCC13032, complex medium, 40 µM, read-out: Final Backscatter
[6] = ATCC13032, complex medium, 40 µM, read-out: Growth rate
[7] = ATCC13032, complex medium, 400 µM, read-out: Final Backscatter
[8] = ATCC13032, complex medium, 400 µM, read-out: Growth rate
[9] = ATCC13032, minimal medium, 4 µM, read-out: Final Backscatter
[10] = ATCC13032, minimal medium, 4 µM, read-out: Growth rate
[11] = ATCC13032, minimal medium, 40 µM, read-out: Final Backscatter
[12] = ATCC13032, minimal medium, 40 µM, read-out: Growth rate
[13] = ATCC13032, minimal medium, 400 µM, read-out: Final Backscatter
[14] = ATCC13032, minimal medium, 400 µM, read-out: Growth rate
[15] = MG1655, complex medium, 4 µM, read-out: Final Backscatter
[16] = MG1655, complex medium, 4 µM, read-out: Growth rate
[17] = MG1655, complex medium, 40 µM, read-out: Final Backscatter
[18] = MG1655, complex medium, 40 µM, read-out: Growth rate
[19] = MG1655, complex medium, 400 µM, read-out: Final Backscatter
[20] = MG1655, complex medium, 400 µM, read-out: Growth rate
[21] = MG1655, minimal medium, 4 µM, read-out: Final Backscatter
[22] = MG1655, minimal medium, 4 µM, read-out: Growth rate
[23] = MG1655, minimal medium, 40 µM, read-out: Final Backscatter
[24] = MG1655, minimal medium, 40 µM, read-out: Growth rate
[25] = MG1655, minimal medium, 400 µM, read-out: Final Backscatter
[26] = MG1655, minimal medium, 400 µM, read-out: Growth rate

Compound O=C(/C=C/c1ccc(O)c(O)c1)c1ccc(O)c(O)c1O [Compound 12, 2′,3′,4′,3,4-Pentahydroxy-chalcone] has an activity at 0.1 µM ([1]; ATCC13032, complex medium, 0.1 µM, read-out: Final Backscatter) of 97%, an activity at 0.1 µM ([1]; ATCC13032, complex medium, 0.1 µM, read-out: Growth rate) of 108% and an activity at 1 µM ([1]; ATCC13032, complex medium, 1 µM, read-out: Final Backscatter) of 93.8%. It also gave an activity at 1 µM ([1]; ATCC13032, complex medium, 1 µM, read-out: Growth rate) of 132%, an activity at 10 µM ([1]; ATCC13032, complex medium, 10 µM, read-out: Final Backscatter) of 89.6% and an activity at 10 µM ([1]; ATCC13032, complex medium, 10 µM, read-out: Growth rate) of 144%. The activity at 0.1 µM ([1]; ATCC13032, minimal medium, 0.1 µM, read-out: Final Backscatter) was 99.6%, the activity at 0.1 µM ([1]; ATCC13032, minimal medium, 0.1 µM, read-out: Growth rate) was 102% and the activity at 1 µM ([1]; ATCC13032, minimal medium, 1 µM, read-out: Final Backscatter) was 97.6%. The activity at 1 µM ([1]; ATCC13032, minimal medium, 1 µM, read-out: Growth rate) was 102%, the activity at 10 µM ([1]; ATCC13032, minimal medium, 10 µM, read-out: Final Backscatter) was 96.7% and the activity at 10 µM ([1]; ATCC13032, minimal medium, 10 µM, read-out: Growth rate) was 97.9%. The “Lag Phase” value ([1]; complex medium, 0.1 µM) was 96,4%, the “Lag Phase” value ([1]; complex medium, 1 µM) was 84,1% and the “Lag Phase” value ([1]; complex medium, 10 µM) was 99,3%. For the same compound, the “Lag Phase” value ([1]; minimal medium, 0.1 µM) was 99,3%, the “Lag Phase” value ([1]; minimal medium, 1 µM) was 99,3% and the “Lag Phase” value ([1]; minimal medium, 10 µM) was 100,7%. The Influence on plants (Amaranthus retroflexus) was “Yes”, the dry weight (Amaranthus retroflexus; six days after treatment, both experiments) was “significantly reduced” and the activity at 0.1 µM ([2]; MG1655, complex medium, 0.1 µM, read-out: Final Backscatter) was 98.5%. For the same compound, the activity at 0.1 µM ([2]; MG1655, complex medium, 0.1 µM, read-out: Growth rate) was 106%, the activity at 1 µM ([2]; MG1655, complex medium, 1 µM, read-out: Final Backscatter) was 100% and the activity at 1 µM ([2]; MG1655, complex medium, 1 µM, read-out: Growth rate) was 100%. For the same compound, the activity at 10 µM ([2]; MG1655, complex medium, 10 µM, read-out: Final Backscatter) was 97.9%, the activity at 10 µM ([2]; MG1655, complex medium, 10 µM, read-out: Growth rate) was 111% and the activity at 0.1 µM ([2]; MG1655, minimal medium, 0.1 µM, read-out: Final Backscatter) was 99.7%. For the same compound, the activity at 0.1 µM ([2]; MG1655, minimal medium, 0.1 µM, read-out: Growth rate) was 99.8%, the activity at 1 µM ([2]; MG1655, minimal medium, 1 µM, read-out: Final Backscatter) was 98.5% and the activity at 1 µM ([2]; MG1655, minimal medium, 1 µM, read-out: Growth rate) was 100%. For the same compound, the activity at 10 µM ([2]; MG1655, minimal medium, 10 µM, read-out: Final Backscatter) was 101%, the activity at 10 µM ([2]; MG1655, minimal medium, 10 µM, read-out: Growth rate) was 104% and the “Lag Phase” value ([2]; complex medium, 0.1 µM) was 108,5%. For the same compound, the “Lag Phase” value ([2]; complex medium, 1 µM) was 102,8%, the “Lag Phase” value ([2]; complex medium, 10 µM) was 111,4% and the “Lag Phase” value ([2]; minimal medium, 0.1 µM) was 99,0%. For the same compound, the “Lag Phase” value ([2]; minimal medium, 1 µM) was 102,0% and the “Lag Phase” value ([2]; minimal medium, 10 µM) was 95,1%.
O=C(/C=C/c1ccccc1)c1ccc(O)cc1O [Compound 4, 2′,4′-Dihydroxychalcone] was tested, and the activity at 4 µM [1, 3] was 101%, the activity at 4 µM [1, 4] was 113% and the activity at 40 µM [1, 5] was 105%. The activity at 40 µM [1, 6] was 115%, the activity at 400 µM [1, 7] was 107% and the activity at 400 µM [1, 8] was 91.6%. The activity at 4 µM [1, 9] was 102%, the activity at 4 µM [1, 10] was 98.9% and the activity at 40 µM [1, 11] was 100%. The activity at 40 µM [1, 12] was 95.5%, the activity at 400 µM [1, 13] was 110% and the activity at 400 µM [1, 14] was 65.2%. For the same compound, the “Lag Phase” value ([1]; complex medium, 4 µM) was 97,4%, the “Lag Phase” value ([1]; complex medium, 40 µM) was 96,2% and the “Lag Phase” value ([1]; complex medium, 400 µM) was 116,6%. The “Lag Phase” value ([1]; minimal medium, 4 µM) was 98,7%, the “Lag Phase” value ([1]; minimal medium, 40 µM) was 100,0% and the “Lag Phase” value ([1]; minimal medium, 400 µM) was 169,9%. The Influence on plants (Amaranthus retroflexus) was “No”, the activity at 4 µM [2, 15] was 101% and the activity at 4 µM [2, 16] was 79.6%. For the same compound, the activity at 40 µM [2, 17] was 104%, the activity at 40 µM [2, 18] was 97.2% and the activity at 400 µM [2, 19] was 100%. For the same compound, the activity at 400 µM [2, 20] was 89.4%, the activity at 4 µM [2, 21] was 103% and the activity at 4 µM [2, 22] was 79%. For the same compound, the activity at 40 µM [2, 23] was 99.3%, the activity at 40 µM [2, 24] was 77.8% and the activity at 400 µM [2, 25] was 102%. For the same compound, the activity at 400 µM [2, 26] was 76.5%, the “Lag Phase” value ([2]; complex medium, 4 µM) was 102,2% and the “Lag Phase” value ([2]; complex medium, 40 µM) was 101,8%. The “Lag Phase” value ([2]; complex medium, 400 µM) was 101,5%, the “Lag Phase” value ([2]; minimal medium, 4 µM) was 100,7% and the “Lag Phase” value ([2]; minimal medium, 40 µM) was 99,3%. The “Lag Phase” value ([2]; minimal medium, 400 µM) was 101,1%.
In the case of O=C(/C=C/c1ccc(O)cc1)c1ccc(O)cc1O [Compound 6, 2′,4′,4-Trihydroxychalcone], the activity at 4 µM [1, 3] is reported as 99.8%, the activity at 4 µM [1, 4] is reported as 99.5% and the activity at 40 µM [1, 5] is reported as 98.2%. It also gave an activity at 40 µM [1, 6] of 101%, an activity at 400 µM [1, 7] of 97.7% and an activity at 400 µM [1, 8] of 79.8%. For the same compound, the activity at 4 µM [1, 9] was 100%, the activity at 4 µM [1, 10] was 101% and the activity at 40 µM [1, 11] was 101%. The activity at 40 µM [1, 12] was 97.7%, the activity at 400 µM [1, 13] was 101% and the activity at 400 µM [1, 14] was 80.5%. For the same compound, the “Lag Phase” value ([1]; complex medium, 4 µM) was 99,3%, the “Lag Phase” value ([1]; complex medium, 40 µM) was 101,3% and the “Lag Phase” value ([1]; complex medium, 400 µM) was 105,3%. For the same compound, the “Lag Phase” value ([1]; minimal medium, 4 µM) was 98,5%, the “Lag Phase” value ([1]; minimal medium, 40 µM) was 101,5% and the “Lag Phase” value ([1]; minimal medium, 400 µM) was 127,6%. The Influence on plants (Amaranthus retroflexus) was “No”, the activity at 4 µM [2, 15] was 98.8% and the activity at 4 µM [2, 16] was 96%. The activity at 40 µM [2, 17] was 99.5%, the activity at 40 µM [2, 18] was 99.1% and the activity at 400 µM [2, 19] was 95%. It also gave an activity at 400 µM [2, 20] of 89.8%, an activity at 4 µM [2, 21] of 100% and an activity at 4 µM [2, 22] of 101%. For the same compound, the activity at 40 µM [2, 23] was 98.8%, the activity at 40 µM [2, 24] was 107% and the activity at 400 µM [2, 25] was 97.7%. The activity at 400 µM [2, 26] was 96.4%, the “Lag Phase” value ([2]; complex medium, 4 µM) was 100,0% and the “Lag Phase” value ([2]; complex medium, 40 µM) was 100,0%. The “Lag Phase” value ([2]; complex medium, 400 µM) was 107,4%, the “Lag Phase” value ([2]; minimal medium, 4 µM) was 101,8% and the “Lag Phase” value ([2]; minimal medium, 40 µM) was 103,5%. The “Lag Phase” value ([2]; minimal medium, 400 µM) was 101,8%.
